For one assay, the system named is [^125I]ST03-Cupid. Briefly: In vivo test of clearing agent: change in blood radioactivity concentration of [^125I]ST03-Cupid in mice. Conditions: mouse blood. How it is done:
In order to examine the efficacy of Compound 14 (Zephyr1), ^125I-labeled ST03-Cupid ([^125I]ST03-Cupid) was administered to male mice via single intravenous administration, and the blood was then collected over time, so that a change in the blood radioactivity concentration caused by administration of Compound 14 was measured. Specifically, four experimental groups were prepared. In a first group, Compound 14 was administered to the mice via single intravenous administration, 6 hours after administration of [^125I]ST03-Cupid. A second group was defined as a control group for the first group, and a normal saline was administered to the mice, instead of Compound 14. In a third group, Compound 14 was administered to the mice via single intravenous administration, 24 hours after administration of [^125I]ST03-Cupid. A fourth group was defined as a control group for the third group, and a normal saline was administered to the mice, instead of Compound 14.
Specifically, with regard to administration of [^125I]ST03-Cupid to the mice, 100 μL of [^125I]ST03-Cupid was administered in a concentration of 50 kBq/100 μL to the mice via single intravenous administration ([…]/50 kBq/100 μL injection). Thereafter, 6 hours or 24 hours after administration of [^125I]ST03-Cupid, Compound 14 was administered to the mice in an amount of 2 times the number of moles of the administered ST03-Cupid ([…]/100 μL injection), or 100 μL of a normal saline was administered to the mice. It is to be noted that the experiments were carried out using the mice groups (n=4 to 6 in each group).
The blood was collected from the orbital vein of the mice over time. When Compound 14 was administered to the mice 6 hours after administration of [^125I]ST03-Cupid, blood collection was carried out with the following time intervals: first blood collection—10 minutes after administration of [^125I]ST03-Cupid, second blood collection—6 hours after administration of [^125]ST03-Cupid, third blood collection—10 minutes after administration of Saline or Compound 14, fourth blood collection—1 hour after administration of Saline or Compound 14, fifth blood collection—3 hours after administration of Saline or Compound 14, sixth blood collection—18 hours after administration of Saline or Compound 14, and seventh blood collection—24 hours after administration of Saline or Compound 14. Likewise, when Compound 14 was administered to the mice 24 hours after administration of [^125I]ST03-Cupid, blood collection was carried out with the following time intervals: first blood collection—10 minutes after administration of [^125]ST03-Cupid, second blood collection—24 hours after administration of [^125I]ST03-Cupid, third blood collection—10 minutes after administration of Saline or Compound 14, fourth blood collection—1 hour after administration of Saline or Compound 14, fifth blood collection—3 hours after administration of Saline or Compound 14, sixth blood collection—6 hours after administration of Saline or Compound 14, and seventh blood collection—24 hours after administration of Saline or Compound 14. The collected blood (40 to 50 μL) was measured using a gamma counter. The counting rate (dmp) measured with the gamma counter was divided by the amount of blood collected (g) to calculate a counting rate (dpm/g of blood) per unit weight, and the results were shown in a graph. Likewise, the counting rate (dmp) measured with the gamma counter was divided by the counting rate of [^125I]ST03-Cupid before administration, so as to calculate the remaining percentage (% ID/g of blood) in the dose after the administration. The results were shown in a graph. The measurement results are shown in Tables 1 and 2 and FIGS. 1 and 2.

In assay [1] the target is T1, Cupid (Streptomyces avidinii, UniProt P22629, E125D/E140N/N47D/N73G/R108K/R127K/S51D/S69N/Y107S/Y46S).
T1 construct: fused on or other part: Anti-CEACAM5 scFv antibody ST03 fused to Cupid as the molecular probe (ST03-Cupid = anti-CEA-Cupid = 'CEA-Cupid'); 6xHis tag at the C-terminus
Briefly: Affinity to Cupid, SPR kinetics analysis (Biacore T200, Single Cycle Kinetics, CEA-Cupid immobilized). Format: binding. How it is done: (§1) In order to examine the affinity of Zephyr1 and Zephyr2 to Cupid, kinetics analysis was carried out using SPR (Biacore T200). Specifically, using Amin Coupling Kit (GE Healthcare), CEA-Cupid serving as a ligand was immobilized on Sensor Chip CM5 (GE Healthcare), targeting 5000RU. Thereafter, using 5 two-fold serial dilutions (from 10 nM) of Zephyr1 or Zephyr2 serving as an analyte, kinetics analysis was carried out according to a Single Cycle Kinetics method. Thereafter, using Biacore T200 Evaluation Software, version 2.0 (GE Healthcare), the obtained data were fitted at a Bivalent Analyte mode, and kinetic parameters were calculated. As a result, Zephyr1: ka=3.792E+4, kd=4.42E−6 (FIG. 3A); and Zephyr2: ka=1.578E+7, kd=0.09339 (FIG. 3B).

Assay [2] concerns the target T2, Cupid (Streptomyces avidinii, UniProt P22629, Y46S/N47D/S51D/S69N/N73G/Y107S/R108K/E125D/R127K/E140N).
T2 construct: fused on or other part: Anti-CEACAM5 scFv antibody ST03 fused to Cupid as the molecular probe (ST03-Cupid = anti-CEA-Cupid = 'CEA-Cupid'); 6xHis tag at the C-terminus
The description is as above. Conditions: for ka / kd: Bivalent Analyte fit. In kind it is binding. How it is done:
as §1

The test system of the next assay is CEA-Cupid. Briefly: Clearance of Cupid by Zephyr2 in vivo, xenograft mouse models, blood radioactivity of Psyche-B-DOTA(^111In). The settings on record: Zephyr2 20 hours after CEA-Cupid; Psyche-B-DOTA(111In) two hours later; blood collected 4 hours after labeling substance. How it is done:
A 100 mM acetate buffer was added to ^111InCl3 solution 37 MBq (approx. […]) in the same volume as the ^111InCl3 solution, and the pH of the mixed solution was then adjusted to pH 4 to 5. Psyche-B-DOTA was added to the mixed solution at a molar ratio of 1000 times (10 nmol), such that the concentration of DMSO became 0.2% or more. The thus obtained mixture was heated at 80° C. for 15 minutes or more. Thereafter, the reaction mixture was analyzed according to HPLC, and the radiochemical purity was confirmed. The mixture was diluted with a 10 mM acetate buffer to a concentration of 1 nmol/mL, and the obtained solution was used as an administration solution.
Whether or not Cupid existing in the blood of a living body is cleared by Zephyr2 was examined by performing an experiment using xenograft mouse models. The experiment was carried out using three mice from a Zephyr2 administration group and three mice from a non-administration group (control group). Specifically, […] CEA-Cupid was administered to the xenograft mouse models, and 20 hours after the administration of CEA-Cupid, 100 μmol Zephyr2 was administered (the control group was untreated). […] Subsequently, 4 hours after the administration of the labeling substance, the blood was collected, and the amount of radioactivity therein was then measured using a gamma counter. […]

Setting [3] is: CA given 6 hr after [125I]ST03-Cupid, time 0.17 hr (before CA).
[4] abbreviates: CA given 6 hr after [125I]ST03-Cupid, time 5.92 hr (before CA).
Where [5] appears, read: CA given 6 hr after [125I]ST03-Cupid, time 6.17 hr.
The mark [6] stands for this setting: CA given 6 hr after [125I]ST03-Cupid, time 7 hr.
Where [7] appears, read: CA given 6 hr after [125I]ST03-Cupid, time 9 hr.
Setting [8] is: CA given 6 hr after [125I]ST03-Cupid, time 24 hr.
[9] abbreviates: CA given 6 hr after [125I]ST03-Cupid, time 30 hr.
Where [10] appears, read: CA given 24 hr after [125I]ST03-Cupid, time 0.17 hr (before CA).
The mark [11] stands for this setting: CA given 24 hr after [125I]ST03-Cupid, time 23.92 hr (before CA).
[12] abbreviates: CA given 24 hr after [125I]ST03-Cupid, time 24.17 hr.
Setting [13] is: CA given 24 hr after [125I]ST03-Cupid, time 25 hr.
Where [14] appears, read: CA given 24 hr after [125I]ST03-Cupid, time 27 hr.
Where [15] appears, read: CA given 24 hr after [125I]ST03-Cupid, time 30 hr.
Setting [16] is: CA given 24 hr after [125I]ST03-Cupid, time 48 hr.

T2 sequence (P22629 whole entry Y46S/N47D/S51D/S69N/N73G/Y107S/R108K/E125D/R127K/E140N, looked up, the tested form may be a part): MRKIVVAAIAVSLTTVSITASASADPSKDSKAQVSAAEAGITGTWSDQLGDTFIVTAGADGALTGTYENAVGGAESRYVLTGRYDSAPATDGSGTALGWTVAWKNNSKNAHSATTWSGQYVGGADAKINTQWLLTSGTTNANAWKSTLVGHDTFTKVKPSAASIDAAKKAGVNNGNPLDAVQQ
T1 sequence (P22629 whole entry E125D/E140N/N47D/N73G/R108K/R127K/S51D/S69N/Y107S/Y46S, looked up, the tested form may be a part): as the sequence (P22629 whole entry Y46S/N47D/S51D/S69N/N73G/Y107S/R108K/E125D/R127K/E140N, looked up, the tested form may be a part) above

`CC(=O)NC1C(SCCC(=O)NCCOCCOCCNC(=O)CCC(CCC(=O)NCCOCCOCCNC(=O)CCSC2OC(CO)C(O)C(O)C2NC(C)=O)(CCC(=O)NCCOCCOCCNC(=O)CCSC2OC(CO)C(O)C(O)C2NC(C)=O)NC(=O)OCCOCCOCCn2cc(COCCNC(=O)c3cc(NC(=O)CCCCCNC(=O)CCCC[C@@H]4SC[C@@H]5NC(=N)N[C@@H]54)cc(NC(=O)CCCCCNC(=O)CCCC[C@@H]4SC[C@@H]5NC(=N)N[C@@H]54)c3)nn2)OC(CO)C(O)C1O` (stereo partly drawn) [Compound 14]: the “% Injected Dose/g of blood” value is reported as 31.7 ± 3.6 % Injected Dose/g of blood in assay [^125I]ST03-Cupid (setting [3]); 16.6 ± 2.2 % Injected Dose/g of blood in assay [^125I]ST03-Cupid (setting [4]); 6.2 ± 1.8 % Injected Dose/g of blood in assay [^125I]ST03-Cupid (setting [5]); 4.8 ± 1.6 % Injected Dose/g of blood in assay [^125I]ST03-Cupid (setting [6]); 4.4 ± 1.6 % Injected Dose/g of blood in assay [^125I]ST03-Cupid (setting [7]); 2.4 ± 0.8 % Injected Dose/g of blood in assay [^125I]ST03-Cupid (setting [8]). Moreover, the “% Injected Dose/g of blood” value in assay [^125I]ST03-Cupid (setting [9]) was 2.0 ± 0.7 % Injected Dose/g of blood; in assay [^125I]ST03-Cupid (setting [10]) it was 33.8 ± 2.5 % Injected Dose/g of blood; in assay [^125I]ST03-Cupid (setting [11]), 6.2 ± 0.9 % Injected Dose/g of blood; in assay [^125I]ST03-Cupid (setting [12]) it was 0.4 ± 0.1 % Injected Dose/g of blood; in assay [^125I]ST03-Cupid (setting [13]), 0.4 ± 0.1 % Injected Dose/g of blood; in assay [^125I]ST03-Cupid (setting [14]) it was 0.6 ± 0.1 % Injected Dose/g of blood. Also, the “% Injected Dose/g of blood” value in assay [^125I]ST03-Cupid (setting [15]) was 0.6 ± 0.2 % Injected Dose/g of blood; in assay [^125I]ST03-Cupid (setting [16]), 0.5 ± 0.1 % Injected Dose/g of blood. Further, the Radioactivity concentration was 599504 ± 68046 dpm/g in assay [^125I]ST03-Cupid (setting [3]); 312854 ± 42382 dpm/g in assay [^125I]ST03-Cupid (setting [4]); 117840 ± 34798 dpm/g in assay [^125I]ST03-Cupid (setting [5]); 90787 ± 29628 dpm/g in assay [^125I]ST03-Cupid (setting [6]); 83236 ± 29606 dpm/g in assay [^125I]ST03-Cupid (setting [7]); 46178 ± 15340 dpm/g in assay [^125I]ST03-Cupid (setting [8]). Moreover, the Radioactivity concentration in assay [^125I]ST03-Cupid (setting [9]) was determined as 37023 ± 13443 dpm/g; in assay [^125I]ST03-Cupid (setting [10]), 638296 ± 48098 dpm/g; in assay [^125I]ST03-Cupid (setting [11]), 116201 ± 17325 dpm/g; in assay [^125I]ST03-Cupid (setting [12]), 8368 ± 1872 dpm/g; in assay [^125I]ST03-Cupid (setting [13]), 7381 ± 1798 dpm/g; in assay [^125I]ST03-Cupid (setting [14]) it was 10748 ± 2533 dpm/g. Besides, the Radioactivity concentration came to 12088 ± 3191 dpm/g in assay [^125I]ST03-Cupid (setting [15]) and 9001 ± 1942 dpm/g in assay [^125I]ST03-Cupid (setting [16]). Besides, the Kd (in general, the concentration at which binding is half-saturated) on Cupid [1] came out at 0.117 nM. The same compound returned a ka on Cupid [2] (SPR) of 3.792E+4. Also, the kd on Cupid [2] (SPR) amounted to 4.42E−6.

For the compound `COC(=O)C(CCCCNC(=O)c1cc(NC(=O)NCCOCCOCCNC(=O)CCc2cn(CCOCCOCCOC(=O)NC(CCC(=O)NCCOCCOCCNC(=O)CCSC3OC(CO)C(O)C(O)C3NC(C)=O)(CCC(=O)NCCOCCOCCNC(=O)CCSC3OC(CO)C(O)C(O)C3NC(C)=O)CCC(=O)NCCOCCOCCNC(=O)CCSC3OC(CO)C(O)C(O)C3NC(C)=O)nn2)cc(C(=O)NCCCCC(NC(=O)CCCCC2SCC3NC(=N)NC32)C(=O)OC)c1)NC(=O)CCCCC1SCC2NC(=N)NC21` (stereo not drawn) [Compound 25], the “amount of radioactivity in blood” value in the assay with CEA-Cupid came to 4.51 % ID/g. On Cupid [2] (SPR), this compound had a ka of 1.578E+7 and a kd of 0.09339. Also, on Cupid [2] (SPR, printed as KD=ka/kd), binding was characterised by a dissociation constant (Kd) of 5.88 nM. Further, the “affinity to Cupid reduced in comparison to that of Zephyr1” value on Cupid [2] (ratio of KD values) is “approximately one fiftieth”.
